According to PubChem BioAssay (NCI):
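Five concentrations, 48 hours, 96-well plates. GI50 = concentration required for 50% inhibition of growth. Definition used: TGI = concentration required for complete inhibition of growth.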

Key:
Assay in all cases: NCI-60 cell line screen, 48 h
786-0 renal = tested on: 786-0 renal
HCT-116 colon = tested on: HCT-116 colon
U251 CNS = tested on: U251 CNS
MDA-MB-231 breast = tested on: MDA-MB-231 breast
ACHN renal = tested on: ACHN renal
HOP-62 NSCLC = tested on: HOP-62 NSCLC
DU-145 prostate = tested on: DU-145 prostate
UO-31 renal = tested on: UO-31 renal
MOLT-4 leukemia = tested on: MOLT-4 leukemia
SW-620 colon = tested on: SW-620 colon
NCI-H522 lung = tested on: NCI-H522 lung
OVCAR-3 ovarian = tested on: OVCAR-3 ovarian
SN12C renal = tested on: SN12C renal
SK-MEL-28 melanoma = tested on: SK-MEL-28 melanoma
HCC-2998 colon = tested on: HCC-2998 colon
COLO 205 colon = tested on: COLO 205 colon
NCI-H226 lung = tested on: NCI-H226 lung
NCI/ADR-RES ovarian = tested on: NCI/ADR-RES ovarian
K-562 leukemia = tested on: K-562 leukemia
MCF7 breast = tested on: MCF7 breast
SK-MEL-2 melanoma = tested on: SK-MEL-2 melanoma
HOP-92 NSCLC = tested on: HOP-92 NSCLC
BT-549 breast = tested on: BT-549 breast
MALME-3M melanoma = tested on: MALME-3M melanoma
CAKI-1 renal = tested on: CAKI-1 renal
OVCAR-5 ovarian = tested on: OVCAR-5 ovarian
A498 renal = tested on: A498 renal
HCT-15 colon = tested on: HCT-15 colon
PC-3 prostate = tested on: PC-3 prostate
NCI-H460 lung = tested on: NCI-H460 lung
KM12 colon = tested on: KM12 colon
SNB-19 CNS = tested on: SNB-19 CNS
RXF 393 renal = tested on: RXF 393 renal
SK-OV-3 ovarian = tested on: SK-OV-3 ovarian
MDA-MB-435 = tested on: MDA-MB-435
SF-268 CNS = tested on: SF-268 CNS
A549 NSCLC = tested on: A549 NSCLC
HL-60(TB) leukemia = tested on: HL-60(TB) leukemia
SNB-75 CNS = tested on: SNB-75 CNS
M14 melanoma = tested on: M14 melanoma
UACC-62 melanoma = tested on: UACC-62 melanoma
T-47D breast = tested on: T-47D breast
IGROV1 ovarian = tested on: IGROV1 ovarian
OVCAR-8 ovarian = tested on: OVCAR-8 ovarian
HS 578T breast = tested on: HS 578T breast
EKVX NSCLC = tested on: EKVX NSCLC
MDA-MB-468 breast = tested on: MDA-MB-468 breast
SK-MEL-5 melanoma = tested on: SK-MEL-5 melanoma
TK-10 renal = tested on: TK-10 renal
SF-295 CNS = tested on: SF-295 CNS
RPMI-8226 leukemia = tested on: RPMI-8226 leukemia
HT29 colon = tested on: HT29 colon
CCRF-CEM leukemia = tested on: CCRF-CEM leukemia
NCI-H23 lung = tested on: NCI-H23 lung
SF-539 CNS = tested on: SF-539 CNS
UACC-257 melanoma = tested on: UACC-257 melanoma
LOX IMVI melanoma = tested on: LOX IMVI melanoma
OVCAR-4 ovarian = tested on: OVCAR-4 ovarian

N/C(=N\c1nc2ccccc2s1)NC(=O)Nc1ccccc1F
GI50 (786-0 renal): 6.41 µM
TGI (786-0 renal): 22 µM
GI50 (HCT-116 colon): 0.462 µM
TGI (HCT-116 colon): 18.5 µM
GI50 (U251 CNS): 0.468 µM
TGI (U251 CNS): 14.4 µM
GI50 (MDA-MB-231 breast): 0.724 µM
TGI (MDA-MB-231 breast): 21.2 µM
GI50 (ACHN renal): 2.45 µM
TGI (ACHN renal): 20.9 µM
GI50 (HOP-62 NSCLC): 0.829 µM
TGI (HOP-62 NSCLC): 15.6 µM
GI50 (DU-145 prostate): 2.85 µM
TGI (DU-145 prostate): 15.6 µM
GI50 (UO-31 renal): 1.7 µM
TGI (UO-31 renal): 21.8 µM
GI50 (MOLT-4 leukemia): 0.57 µM
TGI (MOLT-4 leukemia): 69.8 µM
GI50 (SW-620 colon): 0.412 µM
TGI (SW-620 colon): 21.9 µM
GI50 (NCI-H522 lung): 0.412 µM
TGI (NCI-H522 lung): 8.84 µM
GI50 (OVCAR-3 ovarian): 0.369 µM
TGI (OVCAR-3 ovarian): 4.74 µM
GI50 (SN12C renal): 0.842 µM
TGI (SN12C renal): 25.8 µM
GI50 (SK-MEL-28 melanoma): 10.2 µM
TGI (SK-MEL-28 melanoma): 26.4 µM
GI50 (HCC-2998 colon): 1.68 µM
TGI (HCC-2998 colon): 23.1 µM
GI50 (COLO 205 colon): 1.27 µM
TGI (COLO 205 colon): 10.1 µM
GI50 (NCI-H226 lung): 3.29 µM
TGI (NCI-H226 lung): 25 µM
GI50 (NCI/ADR-RES ovarian): 0.364 µM
TGI (NCI/ADR-RES ovarian): 3.11 µM
GI50 (K-562 leukemia): 0.307 µM
TGI (K-562 leukemia): > 100 µM
GI50 (MCF7 breast): 0.424 µM
TGI (MCF7 breast): 20.5 µM
GI50 (SK-MEL-2 melanoma): 0.321 µM
TGI (SK-MEL-2 melanoma): 10.3 µM
GI50 (HOP-92 NSCLC): 6.33 µM
TGI (HOP-92 NSCLC): 24.5 µM
GI50 (BT-549 breast): 0.477 µM
TGI (BT-549 breast): 26 µM
GI50 (MALME-3M melanoma): 1.21 µM
TGI (MALME-3M melanoma): 22.5 µM
GI50 (CAKI-1 renal): 0.525 µM
TGI (CAKI-1 renal): 15.9 µM
GI50 (OVCAR-5 ovarian): 3.28 µM
TGI (OVCAR-5 ovarian): 31.9 µM
GI50 (A498 renal): 17.8 µM
TGI (A498 renal): 34.1 µM
GI50 (HCT-15 colon): 0.434 µM
TGI (HCT-15 colon): > 100 µM
GI50 (PC-3 prostate): 2.07 µM
TGI (PC-3 prostate): 21.2 µM
GI50 (NCI-H460 lung): 0.406 µM
TGI (NCI-H460 lung): 12.2 µM
GI50 (KM12 colon): 0.475 µM
TGI (KM12 colon): 37.6 µM
GI50 (SNB-19 CNS): 1.73 µM
TGI (SNB-19 CNS): 24 µM
GI50 (RXF 393 renal): 0.645 µM
TGI (RXF 393 renal): 5.25 µM
GI50 (SK-OV-3 ovarian): 6.48 µM
TGI (SK-OV-3 ovarian): 23.8 µM
GI50 (MDA-MB-435): 0.231 µM
TGI (MDA-MB-435): 0.68 µM
GI50 (SF-268 CNS): 3.54 µM
TGI (SF-268 CNS): > 100 µM
GI50 (A549 NSCLC): 0.955 µM
TGI (A549 NSCLC): 26.6 µM
GI50 (HL-60(TB) leukemia): 0.385 µM
TGI (HL-60(TB) leukemia): 13.6 µM
GI50 (SNB-75 CNS): 0.201 µM
TGI (SNB-75 CNS): 7.22 µM
GI50 (M14 melanoma): 0.4 µM
TGI (M14 melanoma): 20.8 µM
GI50 (UACC-62 melanoma): 0.387 µM
TGI (UACC-62 melanoma): 18.9 µM
GI50 (T-47D breast): 2.85 µM
TGI (T-47D breast): > 100 µM
GI50 (IGROV1 ovarian): 1 µM
TGI (IGROV1 ovarian): 25.2 µM
GI50 (OVCAR-8 ovarian): 1.25 µM
TGI (OVCAR-8 ovarian): 16.6 µM
GI50 (HS 578T breast): 0.513 µM
TGI (HS 578T breast): 19.5 µM
GI50 (EKVX NSCLC): 0.526 µM
TGI (EKVX NSCLC): 67.2 µM
GI50 (MDA-MB-468 breast): 0.817 µM
TGI (MDA-MB-468 breast): 3.42 µM
GI50 (SK-MEL-5 melanoma): 0.614 µM
TGI (SK-MEL-5 melanoma): 11.1 µM
GI50 (TK-10 renal): 12.1 µM
TGI (TK-10 renal): 30 µM
GI50 (SF-295 CNS): 0.401 µM
TGI (SF-295 CNS): 15.5 µM
GI50 (RPMI-8226 leukemia): 1.26 µM
TGI (RPMI-8226 leukemia): 17.3 µM
GI50 (HT29 colon): 0.369 µM
TGI (HT29 colon): 10.1 µM
GI50 (CCRF-CEM leukemia): 0.694 µM
TGI (CCRF-CEM leukemia): > 100 µM
GI50 (NCI-H23 lung): 2.23 µM
TGI (NCI-H23 lung): 25 µM
GI50 (SF-539 CNS): 0.529 µM
TGI (SF-539 CNS): 4.72 µM
GI50 (UACC-257 melanoma): 14.4 µM
TGI (UACC-257 melanoma): 75.4 µM
GI50 (LOX IMVI melanoma): 0.62 µM
TGI (LOX IMVI melanoma): 19.8 µM
GI50 (OVCAR-4 ovarian): 10.9 µM
TGI (OVCAR-4 ovarian): 39 µM
